Source: patent publication US10973863B2, “Method for regulating, preventing and/or treating pulmonary injury” (SINPHAR PHARMACEUTICAL CO., LTD., priority 2017, dated 2021)

Tests used:
MMP-9 = experiment: Gelatin zymography: LPS-activated active expression of MMP-9 in NR8383 cells; type: cell-based, rat; conditions: Table 4, LPS 1 μg/mL, 24 hours
Source text: As indicated above, when an inflammatory response occurs in animal's pulmonary tissue, the active inflammatory cells will secret MMPs that will destroy the pulmonary tissue structure, cause more serious pulmonary injury, and lead to the decrement in or the loss of pulmonary functions. […]
Thereafter, the medium of each group was collected and respectively subjected to the following procedures. A 10% polyacrylamide gel containing 0.2% gelatin was used to carry out the sodium dodecyl sulfate polyacrylamide gel electrophoresis (SDS-PAGE). After the electrophoresis was completed, the gel was sequentially soaked in 2.5% Triton X-100 solution for 90 minutes to remove SDS, soaked in distillation-distillation water (ddH2O) for 30 minutes, and placed in a reaction solution (50 mM Tris-HCl buffer containing 10 mM CaCl2 and 0.02% NaN3) at a temperature of 37° C. for 18 hours. After the foregoing reaction was completed, the gel was stained by a Coomassie blue staining solution, and the image of stained gel was taken and subjected to an image analysis. The image intensity (the image intensity was calculated based on the size of area and the shade of color) of highlight band (i.e., the gelatin in this area was degraded by MMPs, wherein the area locating around 95 kD molecular weight) on the gel of each group can reflect the active expression of MMP-9 of rat alveolar macrophage NR8383 cells under different conditions (the relative active expression of MMP-9 was calculated by serving the results of the blank group as 0% and serving that of the control group as 100%).
Rat alveolar macrophage NR8383 cells were divided into twenty-eight groups and separately cultivated with the following media for 24 hours: • (1) Blank group: a macrophage growth medium; • (2) Control group: a macrophage growth medium containing 1 μg/mL LPS; • (3) Positive control group: a macrophage growth medium containing 1 μg/mL LPS and 5 μM Prednisolone (a type of corticosteroid; abbreviated as “Pred”; purchased from Sigma-Aldrich); • (4) Extract C (including five sub-groups): a macrophage growth medium containing 1 μg/mL LPS and the extract C provided by [preparation example A-3-2], wherein the extract C is present in the five sub-groups at a concentration of […] respectively; • (5) Extract D (including five sub-groups): a macrophage growth medium containing 1 μg/mL UPS and the extract D provided by [preparation example A-4-2], wherein the extract D is present in the five sub-groups at a concentration of 0.78, 1.56, 3.13, 6.25 and 12.5 respectively; • (6) Extract E (including five sub-groups): a macrophage growth medium containing 1 μg/mL LPS and the extract E provided from [preparation example A-4-3], wherein the extract E is present in the five sub-groups at a concentration of 0.78, 1.56, 3.13, […], and 12.5 respectively; • (7) DATA group (including five sub-groups): a macrophage growth medium containing 1 μg/mL LPS and the dehydrotrametenolic acid (DTTA) provided by [preparation example C-1], wherein the dehydrotrametenolic acid (DTTA) is present in the five sub-groups at a concentration of 0.39, 0.78, 1.56, 3.13 and 6.25 μg/mL respectively; and • (8) PAA group (including live sub-groups): a macrophage growth medium containing 1 μg/mL LPS and the poricoic acid A (PAA) provided from [preparation example C-1], wherein the poricoic acid A (PAA) is present in the five sub-groups at a concentration of 6.25, 12.5, 25, 50 and 100 respectively.
Thereafter, the medium of each group was collected and analyzed by the analyzing procedures same as that of (1-1).

pro-form MMP-9 = experiment: Western blot: pro-form MMP-9 expression in LPS-treated NR8383 cells; type: cell-based, rat; conditions: 0.01 μg/mL LPS; 12.5 μg/mL; 24 hours; vs control group
Method: (§1) Rat alveolar macrophage NR8383 cells were divided into six groups and separately cultivated with the following media for 24 hours: • (1) Control group: a macrophage growth medium containing 0.01 μg/mL LPS; • (2) Positive control group: a macrophage growth medium containing 0.01 μg/mL LPS and 1 μM Dex; and • (3) Extract A group (including four sub-groups): a macrophage growth medium containing 0.01 μg/mL LPS and the extract A provided by [preparation example A-2-2], wherein the extract A is present in the four sub-groups at a concentration of 6.25, 12.5, 25 and 50 μg/mL respectively.
(§2) Thereafter, the proteins in the cells of each group were extracted and then subjected to a Western blot to measure the expression level of pro-form MMP-9 (i.e., the zymogen form of MMP-9), active-form MMP-9 and MMP-12. The relative expression level of pro-form MMP-9, active-form MMP-9 and MMP-12 of each group was calculated by using the results of the control group as a basis (i.e., the expression level of control group was served as 1-fold).
(§3) Rat alveolar macrophage NR8383 cells were divided into ten groups and separately cultivated with the following media for 24 hours:
(§4) (1) Control group: a macrophage growth medium containing 0.01 μg/mL LPS;
(§5) (2) Positive control group: a macrophage growth medium containing 0.01 μg/mL LPS and 1 μM Dex; […]

active-form MMP-9 = experiment: Western blot: active-form MMP-9 expression in LPS-treated NR8383 cells; type: cell-based, rat; conditions: 0.01 μg/mL LPS; 12.5 μg/mL; 24 hours; vs control group
Method: as §1, §2, §3, §4, §5

MMP-12 = experiment: Western blot: MMP-12 expression in LPS-treated NR8383 cells; type: cell-based, rat; conditions: 0.01 μg/mL LPS; 12.5 μg/mL; 24 hours; vs control group
Method: as §1, §2, §3, §4, §5

Mucin 5AC = experiment: Western blot: LPS-induced expression of Mucin 5AC in NCI-H929 cells; type: cell-based, human; conditions: 1 μg/mL LPS, 24 hours, vs control group
Source text: As indicated above, the hypersecretion of mucus in airway can be observed in the patients suffering from pulmonary injury-related diseases, such as chronic obstructive pulmonary disease and emphysema, and the mucus hypersecretion is associated with the overexpression of mucins in pulmonary tissue. Symptoms like the increased sputum production will occur in the patients suffering from the mucin hypersecretion in airway, and the increased sputum will accumulate in the airway and lung, thereby making the airway narrow and increasing respiratory resistance. To investigate the effects of active ingredients of FU-LING extract in regulating, preventing, and/or treating the pulmonary injury-related diseases, such as chronic obstructive pulmonary disease and emphysema, a Western blot was conducted to measure the inhibitory rate of active ingredients of FU-LING extract (tumulosic acid and poricoic acid A) on the LPS-induced expression of Mucin 5AC in human lung epithelial NCI-H929 cells.
Human lung epithelial NCI-H929 cells were divided into ten groups and separately cultivated with the following media for 24 hours:
(1) Control group: an epithelial cell growth medium containing […];
(2) Positive control group: an epithelial cell growth medium containing 1 μg/mL LPS and 10 μM Dex;
(3) TA group (including four sub-groups): an epithelial cell growth medium containing […] the tumulosic acid (TA) provided by [preparation example C-1], wherein the tumulosic acid (TA) is present in the four sub-groups at a concentration of 1.56, 3.13, 6.25 and 12.5 μg/mL respectively; and
(4) PAA group (including four sub-groups): an epithelial cell growth medium containing 1 μg/mL LPS the poricoic acid A (PAA) provided by [preparation example C-1], wherein the poricoic acid A (PAA) is present in the four sub-groups at a concentration of 6.25, 12.5, 25 and 50 μg/mL respectively.
as §2, with “Mucin 5AC.” for “pro-form MMP-9 (i.e., the zymogen form of MMP-9), active-form MMP-9 and MMP-12.”, “Mucin 5AC” for “pro-form MMP-9, active-form MMP-9 and MMP-12”

C=C(CC[C@@H](C(=O)O)[C@H]1[C@H](O)C[C@@]2(C)C3=C(CC[C@]12C)[C@@]1(C)CC[C@H](O)C(C)(C)[C@@H]1CC3)C(C)C [TA, tumulosic acid]
Relative active expression of MMP-9 (%) (MMP-9; 3.13 μg/mL): 60.6% | Relative active expression of MMP-9 (%) (MMP-9; 6.25 μg/mL): 28.4% | Relative active expression of MMP-9 (%) (MMP-9; 12.5 μg/mL): 0% | Inhibitory rate on the expression level of pro-form MMP-9 (pro-form MMP-9): 53% | Inhibitory rate on the expression level of active-form MMP-9 (active-form MMP-9): 100% | Inhibitory rate on the expression level of MMP-12 (MMP-12): 45% | Inhibitory rate on LPS-induced expression of Mucin 5AC (Mucin 5AC; 1.56 μg/mL (low-dose)): up to 75% | Inhibitory rate on LPS-induced expression of Mucin 5AC (Mucin 5AC; 12.5 μg/mL (high-dose)): ≤ 81%
